Source: patent publication US12678458B2, “Antiseptic composition” (BOBS SILVER, priority 2020, dated 2026)
≈ marks a conversion by molar mass, not a printed value.

What was measured:
HRV-A16 = conditions: well-known antiviral compound; cited from earlier work
[1] = test system: Esherichia coli ATCC-8739 (NBIMCC 3397); assay: Agar diffusion test, inhibitory zones; format: cell-based, Escherichia coli; conditions: E. coli; 0.1 ml in 9 mm wells
[2] = test system: Salmonella enterica subsp. enterica ATCC 1304 (NBIMCC 8691); assay: Agar diffusion test, inhibitory zones; format: cell-based; conditions: S. enterica; 0.1 ml in 9 mm wells
Pseudomonas aeruginosa [3] = assay: Agar diffusion test, inhibitory zones; format: cell-based; conditions: P. aeruginosa; 0.1 ml in 9 mm wells
[4] = test system: Staphylococcus aureus subsp. aureus ATCC-6538 (NBIMCC 3359); assay: Agar diffusion test, inhibitory zones; format: cell-based; conditions: S. aureus; 0.1 ml in 9 mm wells
Streptococcus pyogenes [5] = assay: Agar diffusion test, inhibitory zones; format: cell-based; conditions: S. pyogenes; 0.1 ml in 9 mm wells
[6] = test system: Clostridium perfringens ATCC 13124 (NBIMCC 8615); format: cell-based; conditions: C. perfringens; 0.1 ml in 9 mm wells
[7] = test system: Candida albicans ATCC 10231 (NBIMCC 74); assay: Agar diffusion test, inhibitory zones; format: cell-based; conditions: C. albicans; 0.1 ml in 9 mm wells
Total Gram-negative [8] = assay: Agar diffusion test, inhibitory zones; format: cell-based
[9] = test system: Total Gram-positive bacteria; format: cell-based
Total bacteria [10] = assay: Agar diffusion test, inhibitory zones; format: cell-based
[11] = test system: Total (all microorganisms); assay: Agar diffusion test, inhibitory zones; format: cell-based
Esherichia coli = assay: Minimum inhibitory concentrations, two-fold serial dilution in agar; format: cell-based, Escherichia coli; conditions: E. coli
Salmonella enterica = assay: microbe, parasite or virus in culture; format: cell-based
Pseudomonas aeruginosa [12] = assay: Minimum inhibitory concentrations, two-fold serial dilution in agar; format: cell-based; conditions: P. aeruginosa
Staphylococcus aureus = assay: as above; format: cell-based; conditions: S. aureus
Streptococcus pyogenes [13] = assay: as above; format: cell-based; conditions: S. pyogenes
Clostridium perfringens = assay: microbe, parasite or virus in culture; format: cell-based
Candida albicans = assay: Minimum inhibitory concentrations, two-fold serial dilution in agar; format: cell-based; conditions: C. albicans
Total Gram-negative [14] = assay: organism not typed; format: cell-based
Total Gram-positive = assay: organism not typed; format: cell-based
Total bacteria [15] = assay: Minimum inhibitory concentrations, two-fold serial dilution in agar; format: cell-based
[16] = test system: Total (all microorganisms); assay: as above; format: cell-based

For `CCOC(=O)/C=C/[C@H](C[C@@H]1CCNC1=O)NC(=O)[C@@H](CC(=O)[C@@H](NC(=O)c1cc(C)on1)C(C)C)Cc1ccc(F)cc1` [rupintrivir], the antiviral response (HRV-A16) is listed as “almost complete response”.
With `CS(=O)(=O)c1ccc([C@@H](O)[C@@H](CO)NC(=O)C(Cl)Cl)cc1` [Thiamphenicol, thiamphenicol] the “Inhibitory zones in mm” value [1] was 36.0 ± 0.8 mm, the “Inhibitory zones in mm” value [2] was 35.3 ± 0.8 mm and the “Inhibitory zones in mm” value (Pseudomonas aeruginosa [3]) was 34.8 ± 0.8 mm. For the same molecule, the “Inhibitory zones in mm” value [4] was 25.7 ± 3.3 mm, the “Inhibitory zones in mm” value (Streptococcus pyogenes [5]) was 26.0 ± 4.5 mm and the “Inhibitory zones in mm” value [6] was 21.3 ± 0.5 mm. The “Inhibitory zones in mm” value [7] was 28.7 ± 3.7 mm, the “Inhibitory zones in mm” value (Total Gram-negative [8]) was 35.4 ± 0.5 mm and the “Inhibitory zones in mm” value [9] was 24.3 ± 2.1 mm. For the same molecule, the “Inhibitory zones in mm” value (Total bacteria [10]) was 29.9 ± 5.7 mm, the “Inhibitory zones in mm” value [11] was 29.7 ± 5.3 mm and the “Th D” value (Esherichia coli) was 64 µg/mL. For the same molecule, the MIC50 (Esherichia coli; Escherichia coli, read-out: Th MIC50) was 8 µg/mL (≈ 22.5 µM), the “Th D” value (Salmonella enterica; S. enterica) was 64 µg/mL and the MIC50 (Salmonella enterica; Salmonella enterica, read-out: Th MIC50) was 16 µg/mL (≈ 44.9 µM). The “Th D” value (Pseudomonas aeruginosa [12]) was 64 µg/mL, the MIC50 (Pseudomonas aeruginosa [12]; Pseudomonas aeruginosa, read-out: Th MIC50) was 8 µg/mL (≈ 22.5 µM) and the “Th D” value (Staphylococcus aureus) was 64 µg/mL. For the same molecule, the MIC50 (Staphylococcus aureus; Staphylococcus aureus, read-out: Th MIC50) was 16 µg/mL (≈ 44.9 µM), the “Th D” value (Streptococcus pyogenes [13]) was 128 µg/mL and the MIC50 (Streptococcus pyogenes [13]; Streptococcus pyogenes, read-out: Th MIC50) was 32 µg/mL (≈ 89.8 µM). The “Th D” value (Clostridium perfringens; C. perfringens) was 16 µg/mL, the MIC50 (Clostridium perfringens; Clostridium perfringens, read-out: Th MIC50) was 4 µg/mL (≈ 11.2 µM) and the “Th D” value (Candida albicans) was 128 µg/mL. The MIC50 (Candida albicans; Candida albicans, read-out: Th MIC50) was 32 µg/mL (≈ 89.8 µM), the “Th D” value (Total Gram-negative [14]) was 64.00 µg/mL and the MIC50 (Total Gram-negative [14]; read-out: Th MIC50) was 10.7 µg/mL (≈ 30 µM). The “Th D” value (Total Gram-positive) was 42.00 µg/mL, the MIC50 (Total Gram-positive; read-out: Th MIC50) was 21 µg/mL (≈ 59 µM) and the “Th D” value (Total bacteria [15]) was 66.7 µg/mL. The MIC50 (Total bacteria [15]; Total bacteria, read-out: Th MIC50) was 14 µg/mL (≈ 39.3 µM), the “Th D” value [16] was 84.00 µg/mL and the MIC50 ([16]; Total (all microorganisms), read-out: Th MIC50) was 16.6 µg/mL (≈ 46.5 µM).
